Experimental data: US20250122183A1 (Pfizer Inc., priority 2023, published 2025)
Like-named read-outs stand apart in the source and are kept apart here.

Tests used:
Format in all cases: biochemical
Conditions in all cases: replicate number in parentheses
KAT6A Full length enzyme = KAT6A Full length enzyme (Homo sapiens (Human), UniProt Q92794); experiment: KAT6A assay (SAMDI-MS acetylation of H3 1-21 peptide)
[1] = molecular target: KAT7+BRPF2+EAF6+ING5 4 protein complex (Homo sapiens (Human), UniProt O95251); experiment: KAT7 BRPF2 assay (SAMDI-MS acetylation of H3 1-21 peptide)
[2] = molecular target: KAT7+JADE1+EAF6+ING5 4 protein complex (Homo sapiens (Human), UniProt O95251); experiment: KAT7 JADE1 assay (SAMDI-MS acetylation of H3 1-21 peptide)
KAT8 Full length enzyme = KAT8 Full length enzyme (Homo sapiens (Human), UniProt Q9H7Z6); experiment: KAT8 assay (SAMDI-MS acetylation of H3 1-21 peptide)
KAT8 Full length enzyme, sequence (Q9H7Z6 whole entry): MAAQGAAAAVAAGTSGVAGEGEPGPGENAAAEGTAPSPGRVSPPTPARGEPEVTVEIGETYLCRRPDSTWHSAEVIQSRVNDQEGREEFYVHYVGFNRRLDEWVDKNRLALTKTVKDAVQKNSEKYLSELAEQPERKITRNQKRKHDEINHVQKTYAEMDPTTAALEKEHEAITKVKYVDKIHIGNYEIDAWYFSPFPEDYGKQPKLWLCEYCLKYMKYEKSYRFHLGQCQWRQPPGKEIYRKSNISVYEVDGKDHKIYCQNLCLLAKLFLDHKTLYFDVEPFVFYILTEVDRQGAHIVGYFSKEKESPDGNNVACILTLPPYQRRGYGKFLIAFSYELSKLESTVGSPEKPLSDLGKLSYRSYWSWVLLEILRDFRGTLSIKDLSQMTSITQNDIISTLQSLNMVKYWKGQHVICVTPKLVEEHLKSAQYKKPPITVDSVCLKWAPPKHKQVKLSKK

KAT5 Full length enzyme = KAT5 Full length enzyme (Homo sapiens (Human), UniProt Q92993); experiment: KAT5 assay (SAMDI-MS acetylation of H4 1-21 peptide)
KAT5 Full length enzyme, sequence (Q92993 whole entry): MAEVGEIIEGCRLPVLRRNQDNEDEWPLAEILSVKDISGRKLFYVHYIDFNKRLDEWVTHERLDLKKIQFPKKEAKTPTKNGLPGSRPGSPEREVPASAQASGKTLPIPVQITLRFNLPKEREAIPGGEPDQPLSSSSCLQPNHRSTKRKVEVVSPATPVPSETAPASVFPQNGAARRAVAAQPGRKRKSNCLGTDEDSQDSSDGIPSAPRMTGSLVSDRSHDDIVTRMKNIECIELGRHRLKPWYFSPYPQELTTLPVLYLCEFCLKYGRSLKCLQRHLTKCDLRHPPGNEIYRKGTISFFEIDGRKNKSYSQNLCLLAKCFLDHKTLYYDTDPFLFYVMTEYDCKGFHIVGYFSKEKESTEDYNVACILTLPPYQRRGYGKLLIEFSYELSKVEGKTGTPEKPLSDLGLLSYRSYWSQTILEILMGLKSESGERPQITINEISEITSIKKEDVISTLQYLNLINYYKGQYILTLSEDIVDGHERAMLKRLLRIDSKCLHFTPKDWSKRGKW

[3] = Morrison equation fit, read-out: KAT6A Ki (nM) (replicate number)
[4] = Morrison equation fit, read-out: KAT7 BRPF2 Ki (nM) (replicate number)
[5] = Morrison equation fit, read-out: KAT7 JADE1 Ki (nM) (replicate number)
[6] = Morrison equation fit, read-out: KAT8 Ki (nM) (replicate number)
[7] = Morrison equation fit, read-out: KAT5 Ki (nM) (replicate number)
[8] = read-out: KAT6A Ki (nM) (replicate)
[9] = read-out: KAT7 BRPF2 Ki (nM) (replicate)
[10] = read-out: KAT7 JADE1 Ki (nM) (replicate)
[11] = read-out: KAT8 Ki (nM) (replicate)
[12] = read-out: KAT5 Ki (nM) (replicate)

KAT6A Full length enzyme, sequence (Q92794 other isoform, or with tags, fused parts or gaps): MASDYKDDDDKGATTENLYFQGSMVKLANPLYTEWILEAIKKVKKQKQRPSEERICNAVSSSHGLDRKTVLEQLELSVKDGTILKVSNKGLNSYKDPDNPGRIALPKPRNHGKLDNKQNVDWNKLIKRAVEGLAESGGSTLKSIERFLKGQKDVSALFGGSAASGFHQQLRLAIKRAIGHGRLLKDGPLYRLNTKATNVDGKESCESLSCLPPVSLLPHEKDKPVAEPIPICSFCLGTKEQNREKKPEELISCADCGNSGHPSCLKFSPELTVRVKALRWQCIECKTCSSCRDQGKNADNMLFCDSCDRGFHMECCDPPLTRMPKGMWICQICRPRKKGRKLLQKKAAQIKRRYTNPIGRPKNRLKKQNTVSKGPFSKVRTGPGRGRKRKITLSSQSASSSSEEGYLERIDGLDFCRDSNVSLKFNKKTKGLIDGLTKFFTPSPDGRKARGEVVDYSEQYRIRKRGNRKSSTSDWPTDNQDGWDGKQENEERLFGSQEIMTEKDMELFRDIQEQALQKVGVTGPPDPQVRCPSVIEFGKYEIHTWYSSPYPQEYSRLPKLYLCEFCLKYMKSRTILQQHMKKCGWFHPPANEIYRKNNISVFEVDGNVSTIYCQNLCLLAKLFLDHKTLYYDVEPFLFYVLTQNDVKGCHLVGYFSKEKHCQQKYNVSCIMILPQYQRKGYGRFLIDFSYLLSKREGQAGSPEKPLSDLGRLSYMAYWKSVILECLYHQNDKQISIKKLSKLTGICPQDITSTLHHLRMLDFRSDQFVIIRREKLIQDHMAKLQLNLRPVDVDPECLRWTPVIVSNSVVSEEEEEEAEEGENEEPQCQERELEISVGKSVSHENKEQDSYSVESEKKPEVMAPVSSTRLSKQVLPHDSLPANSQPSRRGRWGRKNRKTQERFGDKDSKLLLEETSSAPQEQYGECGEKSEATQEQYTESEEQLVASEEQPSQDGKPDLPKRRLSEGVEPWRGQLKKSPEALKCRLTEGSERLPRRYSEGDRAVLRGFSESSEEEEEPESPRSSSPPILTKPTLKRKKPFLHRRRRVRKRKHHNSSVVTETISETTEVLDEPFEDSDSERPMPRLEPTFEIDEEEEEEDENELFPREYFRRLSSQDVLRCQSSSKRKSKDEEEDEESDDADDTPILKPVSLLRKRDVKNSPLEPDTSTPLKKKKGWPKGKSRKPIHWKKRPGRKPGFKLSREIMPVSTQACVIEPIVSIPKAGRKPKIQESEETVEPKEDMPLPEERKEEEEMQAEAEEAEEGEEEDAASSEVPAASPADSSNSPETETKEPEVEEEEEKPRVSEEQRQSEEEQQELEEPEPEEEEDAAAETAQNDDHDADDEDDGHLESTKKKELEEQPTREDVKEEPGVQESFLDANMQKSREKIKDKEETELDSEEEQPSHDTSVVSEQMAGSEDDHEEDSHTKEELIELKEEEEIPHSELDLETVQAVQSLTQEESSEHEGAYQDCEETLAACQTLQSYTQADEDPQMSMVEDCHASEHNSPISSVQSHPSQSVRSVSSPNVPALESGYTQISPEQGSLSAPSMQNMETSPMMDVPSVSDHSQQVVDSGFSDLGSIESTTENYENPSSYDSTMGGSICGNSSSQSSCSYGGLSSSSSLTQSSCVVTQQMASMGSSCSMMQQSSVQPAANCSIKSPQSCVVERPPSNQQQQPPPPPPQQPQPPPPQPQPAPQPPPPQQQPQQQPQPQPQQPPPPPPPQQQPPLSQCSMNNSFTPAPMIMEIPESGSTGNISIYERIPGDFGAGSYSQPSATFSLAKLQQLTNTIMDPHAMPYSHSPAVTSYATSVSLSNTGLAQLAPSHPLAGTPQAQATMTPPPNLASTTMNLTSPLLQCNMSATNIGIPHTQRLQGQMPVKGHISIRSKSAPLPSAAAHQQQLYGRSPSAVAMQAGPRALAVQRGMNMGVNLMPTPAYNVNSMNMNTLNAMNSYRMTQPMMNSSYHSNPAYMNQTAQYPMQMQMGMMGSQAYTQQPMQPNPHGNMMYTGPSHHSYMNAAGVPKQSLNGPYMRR

| Structure (SMILES) | Ki (KAT6A Full length enzyme; [3]) | Ki [1, 4] | Ki [2, 5] | Ki (KAT8 Full length enzyme; [6]) | Ki (KAT5 Full length enzyme; [7]) | Ki (KAT6A Full length enzyme; [8]) | Ki [1, 9] | Ki [2, 10] | Ki (KAT8 Full length enzyme; [11]) | Ki (KAT5 Full length enzyme; [12]) |
| --- | --- | --- | --- | --- | --- | --- | --- | --- | --- | --- |
| COc1cc2c(NS(=O)(=O)c3c(OC)cc(C(C)N4CCOCC4)cc3OC)noc2cc1Nc1cc(C2CC2)n[nH]1 (single isomer, unassigned) [Example 207, N-{6-[(3-cyclopropyl-1 H-pyrazol-5-yl)amino]-5-methoxy-1,2-benzoxazol-3-yl}-2,6-dimethoxy-4-[1-(morpholin-4-yl)ethyl]benzene-1-sulfonamide] | 2.3 nM | 4 nM | 11.5 nM |  |  |  |  |  |  |  |
| COc1cc2c(NS(=O)(=O)c3c(OC)cc(C4COC(C)(C)CO4)cc3OC)noc2cc1Nc1cc(C2CC2)n[nH]1 (single isomer, unassigned) [Example 185, N-{6-[(3-cyclopropyl-1 H-pyrazol-5-yl)amino]-5-methoxy-1,2-benzoxazol-3-yl}-4-(5,5-dimethyl-1,4-dioxan-2-yl)-2,6-dimethoxybenzene-1-sulfonamide] | 0.3 nM | 0.9 nM | 1.8 nM | 1220 nM | 1 nM |  |  |  |  |  |
| COc1cc2c(NS(=O)(=O)c3c(OC)cc([C@H]4CCCN4C)cc3OC)noc2cc1Nc1cc(C2CC2)n[nH]1 [Example 188, N-{6-[(3-cyclopropyl-1 H-pyrazol-5-yl)amino]-5-methoxy-1,2-benzoxazol-3-yl}-2,6-dimethoxy-4-[(2R)-1-methylpyrrolidin-2-yl]benzene-1-sulfonamide] | 2.5 nM | 2.9 nM | 8.4 nM | 3690 nM | 140 nM |  |  |  |  |  |
| COc1cc2c(NS(=O)(=O)c3c(OC)cc(C4COCC(C)(C)O4)cc3OC)noc2cc1Nc1cc(C2CC2)n[nH]1 (single isomer, unassigned) [Example 183, N-{6-[(3-cyclopropyl-1 H-pyrazol-5-yl)amino]-5-methoxy-1,2-benzoxazol-3-yl}-4-(6,6-dimethyl-1,4-dioxan-2-yl)-2,6-dimethoxybenzene-1-sulfonamide] | 2.1 nM | 2.1 nM | 5.7 nM |  |  |  |  |  |  |  |
| CCc1cc(Nc2cc3onc(NS(=O)(=O)c4ccc(C(=O)NCCCCCNC(=O)c5ccc(-c6nnc(C)nn6)cc5)cc4OC)c3cc2OC)[nH]n1 [Example 138, 4-({6-[(3-Ethyl-1 H-pyrazol-5-yl)amino]-5-methoxy-1,2-benzoxazol-3-yl}sulfamoyl)-3-methoxy-N-{5-[4-(6-methyl-1,2,4,5-tetrazin-3-yl)benzamido]pentyl}benzamide] | 1.2 nM | 5.6 nM | 40.6 nM | > 13000 nM | 195 nM |  |  |  |  |  |
| COc1cc2c(NS(=O)(=O)c3c(OC)cc(N4CC[C@@H](F)C4)cc3OC)noc2cc1Nc1cc(C2CC2)n[nH]1 [Example 249, N-{6-[(3-cyclopropyl-1H-pyrazol-5-yl)amino]-5-methoxy-1,2-benzoxazol-3-yl}-4-[(3R)-3-fluoropyrrolidin-1-yl]-2,6-dimethoxybenzene-1-sulfonamide] |  |  |  |  |  | 0.3 nM | 0.3 nM | 1.7 nM | 104 nM | 8.7 nM |
| COc1cc2c(NS(=O)(=O)c3c(OC)cc(C4COCC(C)(C)O4)cc3OC)noc2cc1Nc1cc(C2CC2)n[nH]1 (single isomer, unassigned) [Example 184, N-{6-[(3-cyclopropyl-1 H-pyrazol-5-yl)amino]-5-methoxy-1,2-benzoxazol-3-yl}-4-(6,6-dimethyl-1,4-dioxan-2-yl)-2,6-dimethoxybenzene-1-sulfonamide] | 1.8 nM | 1.6 nM | 4.7 nM | 1030 nM | 60.7 nM |  |  |  |  |  |
| CCc1cc(Nc2cc3onc(NS(=O)(=O)c4ccc(C(=O)NCCCCCN)cc4OC)c3cc2OC)[nH]n1 [Example 96, N-(5-aminopentyl)-4-({6-[(3-ethyl-1H-pyrazol-5-yl)amino]-5-methoxy-1,2-benzoxazol-3-yl}sulfamoyl)-3-methoxybenzamide] | 7.3 nM | 13.6 nM | 103 nM | > 13000 nM | 2050 nM |  |  |  |  |  |
| COc1cc2c(NS(=O)(=O)c3c(OC)cc(N4CCN(C)CC4)cc3OC)noc2cc1Nc1cc(C2CC2)n[nH]1 [Example 251, N-{6-[(3-cyclopropyl-1H-pyrazol-5-yl)amino]-5-methoxy-1,2-benzoxazol-3-yl}-2,6-dimethoxy-4-(4-methylpiperazin-1-yl)benzene-1-sulfonamide] |  |  |  |  |  | 1 nM | 2.1 nM | 6.2 nM | 1150 nM | 67 nM |
| COc1cc2c(NS(=O)(=O)c3c(OC)cc(N(C)C4COC4)cc3OC)noc2cc1Nc1cc(C2CC2)n[nH]1 [Example 248, N-{6-[(3-cyclopropyl-1H-pyrazol-5-yl)amino]-5-methoxy-1,2-benzoxazol-3-yl}-2,6-dimethoxy-4-[methyl(oxetan-3-yl)amino]benzene-1-sulfonamide] |  |  |  |  |  | 1.2 nM | 2.6 nM | 5.8 nM |  |  |
| COc1cc2c(NS(=O)(=O)c3c(OC)cc(N4C(=O)CCC4(C)C)cc3OC)noc2cc1Nc1cc(C2CC2)n[nH]1 [Example 256, N-{6-[(3-cyclopropyl-1H-pyrazol-5-yl)amino]-5-methoxy-1,2-benzoxazol-3-yl}-4-(2,2-dimethyl-5-oxopyrrolidin-1-yl)-2,6-dimethoxybenzene-1-sulfonamide] |  |  |  |  |  | 1.1 nM | 0.8 nM | 4.7 nM |  |  |
| COc1cc2c(NS(=O)(=O)c3c(OC)cc(C4COC(C)(C)CO4)cc3OC)noc2cc1Nc1cc(C2CC2)n[nH]1 (single isomer, unassigned) [Example 186, N-{6-[(3-cyclopropyl-1 H-pyrazol-5-yl)amino]-5-methoxy-1,2-benzoxazol-3-yl}-4-(5,5-dimethyl-1,4-dioxan-2-yl)-2,6-dimethoxybenzene-1-sulfonamide] | 0.8 nM | 1.5 nM | 3.6 nM | 590 nM | 5.8 nM |  |  |  |  |  |
| COc1cc2c(NS(=O)(=O)c3c(OC)cc(N(C)C4CCOC4)cc3OC)noc2cc1Nc1cc(C2CC2)[nH]n1 (centres unmarked) [Example 247, N-{6-[(3-cyclopropyl-1H-pyrazol-5-yl)amino]-5-methoxy-1,2-benzoxazol-3-yl}-2,6-dimethoxy-4-[methyl(oxolan-3-yl)amino]benzene-1-sulfonamide] |  |  |  |  |  | 0.5 nM | 1.7 nM | 2.7 nM |  |  |
| COc1cc2c(NS(=O)(=O)c3c(OC)cc(N4CC[C@@H](OC)C4)cc3OC)noc2cc1Nc1cc(C2CC2)n[nH]1 [Example 250, N-{6-[(3-cyclopropyl-1H-pyrazol-5-yl)amino]-5-methoxy-1,2-benzoxazol-3-yl}-2,6-dimethoxy-4-[(3R)-3-methoxypyrrolidin-1-yl]benzene-1-sulfonamide] |  |  |  |  |  | 0.2 nM | 0.9 nM | 1.3 nM |  |  |
| CCc1cc(Nc2cc3onc(NS(=O)(=O)c4cccc(Oc5ccc(F)cc5)c4)c3cc2OC)n[nH]1 [Example 128, N-{6-[(5-ethyl-1 H-pyrazol-3-yl)amino]-5-methoxy-1,2-benzoxazol-3-yl}-3-(4-fluorophenoxy)benzene-1-sulfonamide] | 38.1 nM |  | 212 nM | > 13000 nM | 7830 nM |  |  |  |  |  |
| CCOc1cc(F)ccc1S(=O)(=O)Nc1noc2cc(Nc3cc(C4CC4)n[nH]3)c(F)c(OC)c12 [Example 76, N-{6-[(3-cyclopropyl-1H-pyrazol-5-yl)amino]-5-fluoro-4-methoxy-1,2-benzoxazol-3-yl}-2-ethoxy-4-fluorobenzene-1-sulfonamide] | 11.1 nM |  | 92 nM | > 13000 nM | 1160 nM |  |  |  |  |  |
| CCCc1ccc(S(=O)(=O)Nc2noc3cc(Nc4cc(CC)[nH]n4)c(OC)cc23)cc1 [Example 127, N-{6-[(5-ethyl-1 H-pyrazol-3-yl)amino]-5-methoxy-1,2-benzoxazol-3-yl}-4-propylbenzene-1-sulfonamide] | 32.8 nM |  | 175 nM | > 13000 nM | 3940 nM |  |  |  |  |  |
| COc1cc2c(NS(=O)(=O)c3c(OC)cccc3OC)noc2cc1Nc1cc(Cl)n[nH]1 [Example 92, N-{6-[(3-chloro-1H-pyrazol-5-yl)amino]-5-methoxy-1,2-benzoxazol-3-yl}-2,6-dimethoxybenzene-1-sulfonamide] | 1.3 nM |  | 219 nM | 2100 nM | 867 nM |  |  |  |  |  |
| CCc1cc(Nc2cc3onc(NS(=O)(=O)c4cccc(-c5ccc(OC)cc5)c4)c3cc2OC)[nH]n1 [Example 137, N-{6-[(3-ethyl-1 H-pyrazol-5-yl)amino]-5-methoxy-1,2-benzoxazol-3-yl}-4′-methoxy[1,1′-biphenyl]-3-sulfonamide] | 12.9 nM |  | 9.7 nM | > 13000 nM | 1650 nM |  |  |  |  |  |
| COc1cc2c(NS(=O)(=O)c3c(OC)cccc3OC)noc2cc1Nc1nccc(C)n1 [Example 105, 2,6-dimethoxy-N-{5-methoxy-6-[(4-methylpyrimidin-2-yl)amino]-1,2-benzoxazol-3-yl}benzene-1-sulfonamide] | 9.7 nM |  | 414 nM | > 12700 nM | 4120 nM |  |  |  |  |  |
| COc1cc2c(NS(=O)(=O)c3c(OC)cccc3OC)noc2cc1Nc1cc2n(n1)CCC21CC1 [Example 112, N-{6-[(5′,6′-dihydrospiro[cyclopropane-1,4′-pyrrolo[1,2-b]pyrazol]-2′-yl)amino]-5-methoxy-1,2-benzoxazol-3-yl}-2,6-dimethoxybenzene-1-sulfonamide] | 17.6 nM |  | 238 nM | > 13000 nM | 689 nM |  |  |  |  |  |
